IC50 data for three compounds are collected here from PMC11076983, “Baicalin and baicalein from Scutellaria baicalensis Georgi alleviate aberrant neuronal suppression mediated by GABA from reactive astrocytes” (CNS Neuroscience & Therapeutics, 2024).

Each structure is given as a SMILES string. Like-named read-outs stand apart in the source and are kept apart here.

The target in this assay is T1, monoamine oxidase B (MAO-B) (Homo sapiens, UniProt P27338).
T1 construct: gene MAOB; Human recombinant MAO-B (Sigma, M7441)
T1 sequence (P27338 2-520): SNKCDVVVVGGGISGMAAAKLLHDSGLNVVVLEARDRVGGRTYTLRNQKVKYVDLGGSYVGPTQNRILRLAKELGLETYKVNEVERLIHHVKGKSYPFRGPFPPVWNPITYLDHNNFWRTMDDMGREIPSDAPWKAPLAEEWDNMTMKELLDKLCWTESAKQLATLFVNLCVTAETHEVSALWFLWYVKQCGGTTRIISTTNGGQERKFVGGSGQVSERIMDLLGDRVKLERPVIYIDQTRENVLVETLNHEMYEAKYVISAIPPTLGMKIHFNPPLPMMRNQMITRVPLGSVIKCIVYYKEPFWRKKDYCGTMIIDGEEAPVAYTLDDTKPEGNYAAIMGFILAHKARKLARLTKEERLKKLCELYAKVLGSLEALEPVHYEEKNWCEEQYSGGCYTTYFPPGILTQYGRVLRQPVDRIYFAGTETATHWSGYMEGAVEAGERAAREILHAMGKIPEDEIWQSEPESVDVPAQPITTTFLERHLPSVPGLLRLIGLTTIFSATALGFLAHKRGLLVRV
Briefly: in vitro MAO-B enzyme activity assay with recombinant human enzyme. The assay is classed as biochemical.

On to `O=c1cc(-c2ccccc2)oc2cc(O)c(O)c(O)c12` [baicalein], for which the IC50 (commonly the point on the concentration scale where inhibition reaches its midpoint) came to 21 µM.
For the compound `O=C(O)[C@H]1O[C@@H](Oc2cc3oc(-c4ccccc4)cc(=O)c3c(O)c2O)[C@H](O)[C@@H](O)[C@@H]1O` [baicalin], the half-maximal inhibitory concentration (IC50) (read-out: IC50) was found to be 6.26 µM.
For `COc1c(O)cc(O)c2c(=O)cc(-c3ccccc3)oc12` [wogonin], the IC50 was 79.2 µM.
